Numbers after ± are expanded uncertainties.
Experiment: xn = mol fraction of the nth substance listed
Conditions: Liquid; for viscosity: Concentric cylinders viscometry

Compound `CCCC[n+]1ccn(C)c1.O=S(=O)([N-]S(=O)(=O)C(F)(F)F)C(F)(F)F` + CCCCn1cc[n+](C)c1.[Cl-] has a mass density (331.8 K, 10000 kPa, Bellows volumetry, x2 = 0.75) of 1192.4 ± 4.3 kg/m3, a mass density (331.8 K, 20000 kPa, Bellows volumetry, x2 = 0.25) of 1363.2 ± 5.9 kg/m3 and a mass density (331.8 K, 20000 kPa, Bellows volumetry, x2 = 0.5) of 1291.3 ± 5.5 kg/m3. For the same compound, the mass density (331.8 K, 20000 kPa, Bellows volumetry, x2 = 0.75) was 1197.3 ± 4.3 kg/m3, the mass density (331.8 K, 30000 kPa, Bellows volumetry, x2 = 0.25) was 1369.9 ± 6 kg/m3 and the mass density (331.8 K, 30000 kPa, Bellows volumetry, x2 = 0.5) was 1297.1 ± 5.5 kg/m3. It also gave a mass density (331.8 K, 30000 kPa, Bellows volumetry, x2 = 0.75) of 1202.1 ± 4.4 kg/m3, a mass density (331.8 K, 40000 kPa, Bellows volumetry, x2 = 0.25) of 1376.2 ± 6 kg/m3 and a mass density (331.8 K, 40000 kPa, Bellows volumetry, x2 = 0.5) of 1302.7 ± 5.5 kg/m3. For the same compound, the mass density (331.8 K, 40000 kPa, Bellows volumetry, x2 = 0.75) was 1206.7 ± 4.4 kg/m3, the mass density (331.8 K, 50000 kPa, Bellows volumetry, x2 = 0.25) was 1382.2 ± 6 kg/m3 and the mass density (331.8 K, 50000 kPa, Bellows volumetry, x2 = 0.5) was 1307.9 ± 5.5 kg/m3. It also gave a mass density (331.8 K, 50000 kPa, Bellows volumetry, x2 = 0.75) of 1211.1 ± 4.4 kg/m3, a mass density (331.8 K, 60000 kPa, Bellows volumetry, x2 = 0.25) of 1388 ± 6 kg/m3 and a mass density (331.8 K, 60000 kPa, Bellows volumetry, x2 = 0.5) of 1313 ± 5.5 kg/m3. It also gave a mass density (331.8 K, 60000 kPa, Bellows volumetry, x2 = 0.75) of 1215.5 ± 4.4 kg/m3, a mass density (331.8 K, 70000 kPa, Bellows volumetry, x2 = 0.25) of 1393.5 ± 6 kg/m3 and a mass density (331.8 K, 70000 kPa, Bellows volumetry, x2 = 0.5) of 1318 ± 5.5 kg/m3. The mass density (331.8 K, 70000 kPa, Bellows volumetry, x2 = 0.75) was 1219.5 ± 4.4 kg/m3, the mass density (331.8 K, 80000 kPa, Bellows volumetry, x2 = 0.25) was 1398.9 ± 6 kg/m3 and the mass density (331.8 K, 80000 kPa, Bellows volumetry, x2 = 0.5) was 1322.8 ± 5.5 kg/m3. It also gave a mass density (331.8 K, 80000 kPa, Bellows volumetry, x2 = 0.75) of 1223.6 ± 4.4 kg/m3, a mass density (331.8 K, 90000 kPa, Bellows volumetry, x2 = 0.25) of 1404 ± 6 kg/m3 and a mass density (331.8 K, 90000 kPa, Bellows volumetry, x2 = 0.5) of 1327.2 ± 5.5 kg/m3. It also gave a mass density (331.8 K, 90000 kPa, Bellows volumetry, x2 = 0.75) of 1227.4 ± 4.4 kg/m3, a mass density (331.8 K, 100000 kPa, Bellows volumetry, x2 = 0.25) of 1408.9 ± 6 kg/m3 and a mass density (331.8 K, 100000 kPa, Bellows volumetry, x2 = 0.5) of 1331.6 ± 5.6 kg/m3. It also gave a mass density (331.8 K, 100000 kPa, Bellows volumetry, x2 = 0.75) of 1231.2 ± 4.4 kg/m3, a mass density (331.8 K, 110000 kPa, Bellows volumetry, x2 = 0.25) of 1413.9 ± 6 kg/m3 and a mass density (331.8 K, 110000 kPa, Bellows volumetry, x2 = 0.5) of 1336.1 ± 5.6 kg/m3. For the same compound, the mass density (331.8 K, 110000 kPa, Bellows volumetry, x2 = 0.75) was 1235 ± 4.4 kg/m3, the mass density (331.8 K, 120000 kPa, Bellows volumetry, x2 = 0.25) was 1418.5 ± 6 kg/m3 and the mass density (331.8 K, 120000 kPa, Bellows volumetry, x2 = 0.5) was 1340.4 ± 5.6 kg/m3. It also gave a mass density (331.8 K, 120000 kPa, Bellows volumetry, x2 = 0.75) of 1238.5 ± 4.4 kg/m3, a mass density (331.8 K, 130000 kPa, Bellows volumetry, x2 = 0.25) of 1423.2 ± 6 kg/m3 and a mass density (331.8 K, 130000 kPa, Bellows volumetry, x2 = 0.5) of 1344.4 ± 5.6 kg/m3. The mass density (331.8 K, 130000 kPa, Bellows volumetry, x2 = 0.75) was 1242 ± 4.4 kg/m3, the mass density (331.8 K, 140000 kPa, Bellows volumetry, x2 = 0.25) was 1427.6 ± 6 kg/m3 and the mass density (331.8 K, 140000 kPa, Bellows volumetry, x2 = 0.5) was 1348.5 ± 5.6 kg/m3. For the same compound, the mass density (331.8 K, 140000 kPa, Bellows volumetry, x2 = 0.75) was 1245.4 ± 4.4 kg/m3, the mass density (331.8 K, 150000 kPa, Bellows volumetry, x2 = 0.25) was 1432 ± 6 kg/m3 and the mass density (331.8 K, 150000 kPa, Bellows volumetry, x2 = 0.5) was 1352.3 ± 5.6 kg/m3. The mass density (331.8 K, 150000 kPa, Bellows volumetry, x2 = 0.75) was 1248.7 ± 4.4 kg/m3, the mass density (331.8 K, 160000 kPa, Bellows volumetry, x2 = 0.25) was 1436.3 ± 6 kg/m3 and the mass density (331.8 K, 160000 kPa, Bellows volumetry, x2 = 0.5) was 1356.2 ± 5.6 kg/m3. For the same compound, the mass density (331.8 K, 160000 kPa, Bellows volumetry, x2 = 0.75) was 1252.1 ± 4.4 kg/m3, the mass density (331.8 K, 170000 kPa, Bellows volumetry, x2 = 0.25) was 1440.5 ± 6 kg/m3 and the mass density (331.8 K, 170000 kPa, Bellows volumetry, x2 = 0.5) was 1359.9 ± 5.6 kg/m3. For the same compound, the mass density (331.8 K, 170000 kPa, Bellows volumetry, x2 = 0.75) was 1255.3 ± 4.4 kg/m3, the mass density (331.8 K, 180000 kPa, Bellows volumetry, x2 = 0.25) was 1444.5 ± 6 kg/m3 and the mass density (331.8 K, 180000 kPa, Bellows volumetry, x2 = 0.5) was 1363.8 ± 5.6 kg/m3. It also gave a mass density (331.8 K, 180000 kPa, Bellows volumetry, x2 = 0.75) of 1258.5 ± 4.4 kg/m3, a mass density (331.8 K, 190000 kPa, Bellows volumetry, x2 = 0.25) of 1448.5 ± 6 kg/m3 and a mass density (331.8 K, 190000 kPa, Bellows volumetry, x2 = 0.5) of 1367.3 ± 5.6 kg/m3. The mass density (331.8 K, 190000 kPa, Bellows volumetry, x2 = 0.75) was 1261.6 ± 4.4 kg/m3, the mass density (331.8 K, 200000 kPa, Bellows volumetry, x2 = 0.25) was 1452.6 ± 6 kg/m3 and the mass density (331.8 K, 200000 kPa, Bellows volumetry, x2 = 0.5) was 1371 ± 5.6 kg/m3. The mass density (331.8 K, 200000 kPa, Bellows volumetry, x2 = 0.75) was 1264.7 ± 4.4 kg/m3, the viscosity (333.15 K, 100 kPa, x2 = 0) was 15.47 ± 0.73 mPa·s and the viscosity (333.15 K, 100 kPa, x2 = 0.25) was 27.37 ± 1.8 mPa·s. The viscosity (333.15 K, 100 kPa, x2 = 0.5) was 57.22 ± 4.6 mPa·s, the viscosity (333.15 K, 100 kPa, x2 = 0.75) was 150.4 ± 10 mPa·s and the mass density (333.15 K, 100 kPa, Vibrating tube method, x2 = 0) was 1403.4 ± 3.5 kg/m3. It also gave a mass density (333.15 K, 100 kPa, Vibrating tube method, x2 = 0.25) of 1348.2 ± 5.3 kg/m3, a mass density (333.15 K, 100 kPa, Vibrating tube method, x2 = 0.5) of 1278.3 ± 4.9 kg/m3 and a mass density (333.15 K, 100 kPa, Vibrating tube method, x2 = 0.75) of 1186.8 ± 4 kg/m3. The viscosity (343.15 K, 100 kPa, x2 = 0) was 12 ± 0.57 mPa·s, the viscosity (343.15 K, 100 kPa, x2 = 0.25) was 20.16 ± 1.3 mPa·s and the viscosity (343.15 K, 100 kPa, x2 = 0.5) was 39.08 ± 2.8 mPa·s. For the same compound, the viscosity (343.15 K, 100 kPa, x2 = 0.75) was 91.4 ± 5.7 mPa·s, the mass density (343.15 K, 100 kPa, Vibrating tube method, x2 = 0) was 1394 ± 3.5 kg/m3 and the mass density (343.15 K, 100 kPa, Vibrating tube method, x2 = 0.25) was 1339.6 ± 5.3 kg/m3. It also gave a mass density (343.15 K, 100 kPa, Vibrating tube method, x2 = 0.5) of 1270.6 ± 4.9 kg/m3, a mass density (343.15 K, 100 kPa, Vibrating tube method, x2 = 0.75) of 1180.2 ± 4 kg/m3 and a mass density (351.9 K, 10000 kPa, Bellows volumetry, x2 = 0.25) of 1339.5 ± 5.9 kg/m3. It also gave a mass density (351.9 K, 10000 kPa, Bellows volumetry, x2 = 0.5) of 1270.2 ± 5.5 kg/m3, a mass density (351.9 K, 10000 kPa, Bellows volumetry, x2 = 0.75) of 1179 ± 4.3 kg/m3 and a mass density (351.9 K, 20000 kPa, Bellows volumetry, x2 = 0.25) of 1346.9 ± 5.9 kg/m3. The mass density (351.9 K, 20000 kPa, Bellows volumetry, x2 = 0.5) was 1276.5 ± 5.5 kg/m3, the mass density (351.9 K, 20000 kPa, Bellows volumetry, x2 = 0.75) was 1184.3 ± 4.3 kg/m3 and the mass density (351.9 K, 30000 kPa, Bellows volumetry, x2 = 0.25) was 1354 ± 5.9 kg/m3. It also gave a mass density (351.9 K, 30000 kPa, Bellows volumetry, x2 = 0.5) of 1282.7 ± 5.5 kg/m3, a mass density (351.9 K, 30000 kPa, Bellows volumetry, x2 = 0.75) of 1189.3 ± 4.3 kg/m3 and a mass density (351.9 K, 40000 kPa, Bellows volumetry, x2 = 0.25) of 1360.6 ± 5.9 kg/m3. The mass density (351.9 K, 40000 kPa, Bellows volumetry, x2 = 0.5) was 1288.5 ± 5.5 kg/m3, the mass density (351.9 K, 40000 kPa, Bellows volumetry, x2 = 0.75) was 1194.1 ± 4.3 kg/m3 and the mass density (351.9 K, 50000 kPa, Bellows volumetry, x2 = 0.25) was 1366.9 ± 5.9 kg/m3. The mass density (351.9 K, 50000 kPa, Bellows volumetry, x2 = 0.5) was 1294.1 ± 5.5 kg/m3, the mass density (351.9 K, 50000 kPa, Bellows volumetry, x2 = 0.75) was 1198.8 ± 4.3 kg/m3 and the mass density (351.9 K, 60000 kPa, Bellows volumetry, x2 = 0.25) was 1373 ± 6 kg/m3. For the same compound, the mass density (351.9 K, 60000 kPa, Bellows volumetry, x2 = 0.5) was 1299.5 ± 5.5 kg/m3, the mass density (351.9 K, 60000 kPa, Bellows volumetry, x2 = 0.75) was 1203.2 ± 4.4 kg/m3 and the mass density (351.9 K, 70000 kPa, Bellows volumetry, x2 = 0.25) was 1378.9 ± 6 kg/m3.
